One test concerns the target T1, Cytochrome P450 1A2 (Homo sapiens, UniProt P05177).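 Also: PubChem cytochrome P450 panel assay, CYP1A2 panel member.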
T1 sequence (P05177 whole entry): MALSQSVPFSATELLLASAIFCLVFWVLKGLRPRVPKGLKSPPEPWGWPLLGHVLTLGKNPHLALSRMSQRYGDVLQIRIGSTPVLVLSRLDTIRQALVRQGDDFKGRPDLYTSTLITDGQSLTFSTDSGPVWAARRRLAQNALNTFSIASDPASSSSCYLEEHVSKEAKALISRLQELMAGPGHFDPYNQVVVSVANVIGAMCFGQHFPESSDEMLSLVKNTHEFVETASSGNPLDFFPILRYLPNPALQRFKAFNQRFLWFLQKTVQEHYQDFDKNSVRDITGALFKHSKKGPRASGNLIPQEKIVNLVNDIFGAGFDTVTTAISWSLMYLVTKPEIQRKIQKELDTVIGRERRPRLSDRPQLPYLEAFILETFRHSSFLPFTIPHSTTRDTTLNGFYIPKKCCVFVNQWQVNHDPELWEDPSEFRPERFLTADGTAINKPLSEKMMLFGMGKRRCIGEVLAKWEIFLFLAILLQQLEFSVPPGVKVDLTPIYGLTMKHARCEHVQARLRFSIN

Test [1] concerns the target T2, Cytochrome P450 2C9 (Homo sapiens, UniProt P11712).
For test [2], the target named is T3, Cytochrome P450 2D6 (Homo sapiens, UniProt P10635).
The target of test [3] is T2, Cytochrome P450 2C9. Particulars: Potency.
The target of test [4] is T3, Cytochrome P450 2D6. Description: qHTS Assay for Inhibitors and Substrates of Cytochrome P450 2D6. [Related pubchem assays: 410 ]. To be noted: read-out: Potency. In kind it is ADME. A general note: qHTS replaces the single test concentration by a dilution series.
The target in the next test is Cytochrome P450 2C19 (Homo sapiens, UniProt P33261). Description: Cytochrome panel assay with activity outcomes. Panel member name: p450-cyp2c19 Compounds with AC50 equal or less than 10 uM are considered active. The class given is functional. To be noted: read-out: AC50.
Test [5] has as its target Neurotensin receptor type 1 (Homo sapiens, UniProt P30989). In kind it is functional.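 Also: Image-based confirmatory dose-response assay measuring agonist activity at NTR1; NTR1-expressing U2OS osteosarcoma cells imaged for beta-arrestin GFP spot formation; agonist potency where compounds increase beta-arrestin recruitment.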
The target of the next test is Chaperone protein dnaK (Escherichia coli, UniProt C3TRK2). Description: DnaK beta-domain binding affinity, SAR follow-up, orthogonal assay for DnaK modulator project, biophysical, isothermal titration calorimetry, full-length DnaK (AID 1495).
The test system of test [6] is Vero. The experiment in a line: cytotoxicity of synthesized analogs in Vero 76, SAR follow-up, cytotoxicity control for West Nile virus antiviral project, Vero 76 cells (AID 2414). In kind it is functional. To be noted: Chlorocebus sabaeus.
Test [7] relates to Vero. The experiment in a line: cytotoxicity of synthesized analogs in Vero cells, SAR follow-up, cytotoxicity control for West Nile virus antiviral project, cell-based, set II (AID 2402). In kind it is functional. Particulars: Chlorocebus sabaeus.
Test [8] deals with Vero. The experiment in a line: Vero E6 cell cytotoxicity, SAR follow-up, cytotoxicity control for West Nile virus antiviral project, synthesized analogs (AID 2244). The class given is functional. Particulars: Chlorocebus sabaeus.
Test [9] addresses T4, Ubiquitin-conjugating enzyme E2 N (Homo sapiens, UniProt P61088).
T4 sequence (P61088 whole entry): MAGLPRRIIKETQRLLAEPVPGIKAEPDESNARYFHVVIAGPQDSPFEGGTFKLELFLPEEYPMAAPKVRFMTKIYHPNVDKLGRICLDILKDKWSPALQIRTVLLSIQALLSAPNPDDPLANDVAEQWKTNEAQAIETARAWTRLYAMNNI
In kind it is functional.

A short description of test [10]: Cytotoxicity screening for potential Inhibitors of Bacterial Capsule Biogenesis. [Related pubchem assays (depositor defined):AID488970]. In kind it is functional.

Each structure is given as a SMILES string. Active and inactive are the calls of the source. A value given as a limit tells only on which side of the number the result lay.
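For IC50 in this document: Dose-response confirmation in a TR-FRET assay detecting UBC13-driven polyubiquitin chain formation, inhibition measured.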

T3 sequence (P10635 whole entry): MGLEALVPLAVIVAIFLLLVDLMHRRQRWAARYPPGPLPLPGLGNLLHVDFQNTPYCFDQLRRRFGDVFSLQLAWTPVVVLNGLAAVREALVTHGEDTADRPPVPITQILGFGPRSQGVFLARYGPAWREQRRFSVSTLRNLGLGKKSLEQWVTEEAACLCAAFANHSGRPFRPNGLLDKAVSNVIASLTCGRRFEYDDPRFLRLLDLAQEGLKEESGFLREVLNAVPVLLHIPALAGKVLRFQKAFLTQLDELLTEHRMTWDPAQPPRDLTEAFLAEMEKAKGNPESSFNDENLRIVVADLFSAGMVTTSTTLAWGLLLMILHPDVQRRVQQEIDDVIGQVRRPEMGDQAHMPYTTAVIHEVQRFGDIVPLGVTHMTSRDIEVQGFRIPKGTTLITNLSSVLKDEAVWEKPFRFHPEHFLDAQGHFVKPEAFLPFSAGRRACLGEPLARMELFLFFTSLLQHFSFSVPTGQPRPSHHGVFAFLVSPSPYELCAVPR
T2 sequence (P11712 whole entry): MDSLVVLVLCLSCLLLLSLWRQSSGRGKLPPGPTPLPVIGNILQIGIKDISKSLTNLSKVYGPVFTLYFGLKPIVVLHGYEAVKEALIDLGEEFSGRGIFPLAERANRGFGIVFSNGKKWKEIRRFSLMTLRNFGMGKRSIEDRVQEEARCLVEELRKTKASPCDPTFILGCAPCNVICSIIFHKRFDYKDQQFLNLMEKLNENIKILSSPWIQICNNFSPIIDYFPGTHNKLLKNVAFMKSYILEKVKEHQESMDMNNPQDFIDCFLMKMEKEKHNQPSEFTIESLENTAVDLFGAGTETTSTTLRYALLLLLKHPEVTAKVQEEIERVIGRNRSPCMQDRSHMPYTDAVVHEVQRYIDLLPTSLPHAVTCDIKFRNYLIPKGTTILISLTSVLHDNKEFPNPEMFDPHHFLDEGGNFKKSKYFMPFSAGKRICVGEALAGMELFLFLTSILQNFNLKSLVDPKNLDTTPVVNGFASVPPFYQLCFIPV
Neurotensin receptor type 1, sequence (P30989 whole entry): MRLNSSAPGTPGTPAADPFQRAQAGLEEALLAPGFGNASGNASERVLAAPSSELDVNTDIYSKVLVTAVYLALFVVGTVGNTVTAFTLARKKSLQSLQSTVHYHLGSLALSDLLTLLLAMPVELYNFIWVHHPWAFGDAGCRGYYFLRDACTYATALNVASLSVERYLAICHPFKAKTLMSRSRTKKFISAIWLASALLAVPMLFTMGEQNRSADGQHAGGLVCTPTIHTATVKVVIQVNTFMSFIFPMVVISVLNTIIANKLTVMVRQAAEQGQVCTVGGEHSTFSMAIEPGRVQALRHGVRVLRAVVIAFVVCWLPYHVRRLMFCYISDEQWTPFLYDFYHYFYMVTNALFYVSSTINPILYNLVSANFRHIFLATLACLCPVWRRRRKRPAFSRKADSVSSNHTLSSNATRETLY
Cytochrome P450 2C19, sequence (P33261 whole entry): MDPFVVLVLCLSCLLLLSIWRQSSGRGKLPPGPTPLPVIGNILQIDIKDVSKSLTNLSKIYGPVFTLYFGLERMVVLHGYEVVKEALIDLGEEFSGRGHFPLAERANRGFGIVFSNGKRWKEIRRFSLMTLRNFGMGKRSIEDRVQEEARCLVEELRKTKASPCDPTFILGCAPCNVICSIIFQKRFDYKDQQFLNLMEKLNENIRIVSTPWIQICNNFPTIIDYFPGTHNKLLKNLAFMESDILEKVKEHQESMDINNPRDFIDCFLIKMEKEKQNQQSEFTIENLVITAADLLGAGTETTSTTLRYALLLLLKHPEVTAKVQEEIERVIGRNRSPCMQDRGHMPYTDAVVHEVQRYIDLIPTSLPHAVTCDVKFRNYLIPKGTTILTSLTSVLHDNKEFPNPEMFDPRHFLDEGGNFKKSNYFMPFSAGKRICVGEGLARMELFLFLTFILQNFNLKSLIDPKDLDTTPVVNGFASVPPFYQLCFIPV
Chaperone protein dnaK, sequence (C3TRK2 whole entry): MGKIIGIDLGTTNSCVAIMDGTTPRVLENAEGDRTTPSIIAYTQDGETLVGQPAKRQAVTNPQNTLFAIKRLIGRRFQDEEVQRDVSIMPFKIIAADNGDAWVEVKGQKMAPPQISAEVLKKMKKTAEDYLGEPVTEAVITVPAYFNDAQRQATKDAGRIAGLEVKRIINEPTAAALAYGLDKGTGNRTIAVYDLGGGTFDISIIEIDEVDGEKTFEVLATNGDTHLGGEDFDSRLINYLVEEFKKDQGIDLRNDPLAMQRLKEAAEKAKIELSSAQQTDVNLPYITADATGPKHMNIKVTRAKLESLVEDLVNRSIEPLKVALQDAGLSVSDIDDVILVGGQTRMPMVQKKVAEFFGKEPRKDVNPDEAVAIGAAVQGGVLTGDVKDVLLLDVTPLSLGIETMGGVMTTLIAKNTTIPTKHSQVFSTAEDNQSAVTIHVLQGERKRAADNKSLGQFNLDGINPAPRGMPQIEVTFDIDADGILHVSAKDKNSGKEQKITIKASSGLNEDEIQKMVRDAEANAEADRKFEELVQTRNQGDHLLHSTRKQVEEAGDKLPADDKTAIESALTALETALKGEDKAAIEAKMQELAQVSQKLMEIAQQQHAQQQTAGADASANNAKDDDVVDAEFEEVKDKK

For the compound `O=C(CCNNC(=O)c1ccncc1)NCc1ccccc1` [NIALAMIDE], the AC50 on Cytochrome P450 1A2 was 12.6 µM (inconclusive); on Cytochrome P450 2C9 [1] it was 10 µM (inconclusive); on Cytochrome P450 2D6 [2] it was 7.94 µM (inconclusive); on Cytochrome P450 2C9 [3] it was 25.1 µM (inconclusive); on Cytochrome P450 2D6 [4] it was 25.1 µM (inconclusive); on Cytochrome P450 2C19, 10 µM (inconclusive).
The EC50 is the concentration giving half of the maximal effect. In the case of `O=C(/C=C/c1ccccc1F)c1cccc([N+](=O)[O-])c1`, the EC50 in [5] is 15.1 µM (active).
Usually Kd stands for the free concentration of one partner at which half of the binding sites on the other are occupied at equilibrium, for simple one-to-one binding. On to `Nc1ccc2c(ccn2C(=O)c2cccs2)c1`, for which, on Chaperone protein dnaK, the equilibrium dissociation constant (Kd) was 3.4 µM (active).
By CC50 is commonly meant the concentration that lowers cell viability or growth by half. Take `O=c1c2cc(Br)ccc2nc2n1CC/C2=C/c1ccccc1`: the results for the CC50 in the test on Vero [6], in the test with Vero [7] and in the test on Vero [8] were > 66.6 µM (active), 33.3 µM (active) and > 40 µM (active), respectively.
By IC50 is commonly meant the concentration that gives 50% inhibition. As to `Cc1cc(C)c(NC(=O)C[N+](C)(C)CC(O)COc2cccc3ccccc23)c(C)c1` (stereo not drawn), in test [9], the IC50 was > 20 µM (inactive). Also, the CC50 in test [10] was 15.6 µM (active).

Values taken from ChEMBL document CHEMBL1201862, “PubChem BioAssay data set” (2004).
